The values that follow come from patent EP0456229A2, “Arylsulfatase” (Bristol-Myers Squibb Company, priority 1990, dated 1991).

For data set [1] the following is noted: compared with etoposide; cited from earlier work.
The test system of data set [2] is Es-1 sulfatase. Briefly: Substrate specificity: hydrolysis of etoposide derivatives (TLC). Type of data set: biochemical, Streptomyces griseorubiginosus S980-14. The conditions noted are these: 0.6 u enzyme, 50 mM Tris-HCl pH 7.5, 37°C for 18 hours, silica gel TLC. On the procedure:
• (a) Optimum pH. The stock enzyme solution (0.6 u in 50 µl of 50 mM Tris-HCl, pH 7.5) was added to 100 µl each of the following buffers: 500 mM sodium acetate (pH 4.0-5.5), 500 mM Tris-maleate (pH 5.5-7.5), 500 mM Tris-HCl (pH 7.5-9.0), and 500 mM glycine-NaoH (pH 9.0-10.0). The substrate, p-nitrophenylsulfate, was dissolved in each of the above buffers (1 mg/ml). The enzyme-buffer solution (150 µl) was mixed with 50 µl of the substrate solution in the same buffer as the enzyme, and the mixture was incubated for 30 minutes at 37°C. The reaction was quenched by addition of 100 µl of 0.2 N sodium hydroxide solution. The enzyme activity in each buffer was determined spectrophotometrically by UV at 415 nm. […] The stock enzyme solution was dialyzed against water to remove salts. The dialyzed solution (10 µl) was mixed with 40 µl of 50 mM Tris-HCl buffer (pH 7.5). An aliquot (10 µl) of this solution was mixed with 40 µl each of the buffer listed in (a) and incubated for 30 minutes at 30°C. To this solution (50 µl) were added 100 µl of 500 mM Tris-HCl (pH 9.0) and 50 µl of substrate in water (1 mg/ml), and the mixture was incubated at 37°C for 30 minutes to determine the residual enzyme activity. […] Enzyme (0.6 u) in 150 µl of 50 mM Tris-HCl (pH 8.5) was incubated with p-nitrophenylsulfate in the same buffer (1 mg/ml, 50 µl) for 30 minutes at various temperatures. […] Enzyme preparations (0.6 u) in 50 mM Tris-HCl (150 µl, pH 8.5) were incubated for 15 minutes at various temperatures and then cooled in an ice bath. p-Nitrophenylsulfate in the same buffer (1 mg/ml, 50 µl) was added to the enzyme solution, and the mixture was incubated for 30 minutes at 37°C. […] Fifty µl of enzyme solution (0.6 u in 50 mM Tris-HCl, pH 8.5), 80 µl of 50 mM Tris-HCl (pH 8.5), 50 µl of p-nitrophenyl sulfate (1 mg/ml in same buffer), and 20 µl of ion (10 mM) were mixed. The solution was incubated for 30 minutes at 37°C. p-Nitrophenol released was spectrophotometrically assayed by UV at 415 nm. […] The protocol used in (e) was followed with the exception that 1 mM of an enzyme inhibitor was used instead of a metal ion. […] The protocol used in (e) was followed, except that 5 mM of a salt was used instead of 10 mM of a metal ion. […] Four etoposide derivatives were tested as substrate for the sulfatase of the invention. The substrates are: etoposide 4'-sulfate (III), 2'',3''-di-O-acetyl-etoposide-4'-sulfate (IV), etoposide 2''-sulfate (V), and etoposide 3''-sulfate (VI). […] After 18 hours, 100 µl of methanol was added, and 100 µl of sample was analyzed on a silica gel TLC plate using a solvent system consisting of chloroform-methanol (10:1 v/v). […]

The subject of data set [3] is Es-1 sulfatase. Nature of the data set: Substrate specificity: hydrolysis of BU-3285T (TLC, UV densitometry). Format: biochemical, Streptomyces griseorubiginosus S980-14. Conditions: 0.6 u Es-1 sulfatase, pH 8.5, 18 hours at 37°C, UV densitometry at 254 nm. As for the experimental part: (§1) • (a) Optimum pH. The stock enzyme solution (0.6 u in 50 µl of 50 mM Tris-HCl, pH 7.5) was added to 100 µl each of the following buffers: 500 mM sodium acetate (pH 4.0-5.5), 500 mM Tris-maleate (pH 5.5-7.5), 500 mM Tris-HCl (pH 7.5-9.0), and 500 mM glycine-NaoH (pH 9.0-10.0). The substrate, p-nitrophenylsulfate, was dissolved in each of the above buffers (1 mg/ml). The enzyme-buffer solution (150 µl) was mixed with 50 µl of the substrate solution in the same buffer as the enzyme, and the mixture was incubated for 30 minutes at 37°C. The reaction was quenched by addition of 100 µl of 0.2 N sodium hydroxide solution. The enzyme activity in each buffer was determined spectrophotometrically by UV at 415 nm. […] The stock enzyme solution was dialyzed against water to remove salts. The dialyzed solution (10 µl) was mixed with 40 µl of 50 mM Tris-HCl buffer (pH 7.5). An aliquot (10 µl) of this solution was mixed with 40 µl each of the buffer listed in (a) and incubated for 30 minutes at 30°C. To this solution (50 µl) were added 100 µl of 500 mM Tris-HCl (pH 9.0) and 50 µl of substrate in water (1 mg/ml), and the mixture was incubated at 37°C for 30 minutes to determine the residual enzyme activity. […] After 18 hours, 100 µl of methanol was added, and 100 µl of sample was analyzed on a silica gel TLC plate using a solvent system consisting of chloroform-methanol (10:1 v/v). […]

Data set [4] concerns Es-1 sulfatase. Briefly: Effect of ions / EDTA treatment and Ca2+ recovery of sulfatase activity. Type of data set: biochemical, Streptomyces griseorubiginosus S980-14. On the procedure:
• (a) Optimum pH. The stock enzyme solution (0.6 u in 50 µl of 50 mM Tris-HCl, pH 7.5) was added to 100 µl each of the following buffers: 500 mM sodium acetate (pH 4.0-5.5), 500 mM Tris-maleate (pH 5.5-7.5), 500 mM Tris-HCl (pH 7.5-9.0), and 500 mM glycine-NaoH (pH 9.0-10.0). The substrate, p-nitrophenylsulfate, was dissolved in each of the above buffers (1 mg/ml). The enzyme-buffer solution (150 µl) was mixed with 50 µl of the substrate solution in the same buffer as the enzyme, and the mixture was incubated for 30 minutes at 37°C. The reaction was quenched by addition of 100 µl of 0.2 N sodium hydroxide solution. The enzyme activity in each buffer was determined spectrophotometrically by UV at 415 nm. […] The stock enzyme solution was dialyzed against water to remove salts. The dialyzed solution (10 µl) was mixed with 40 µl of 50 mM Tris-HCl buffer (pH 7.5). An aliquot (10 µl) of this solution was mixed with 40 µl each of the buffer listed in (a) and incubated for 30 minutes at 30°C. To this solution (50 µl) were added 100 µl of 500 mM Tris-HCl (pH 9.0) and 50 µl of substrate in water (1 mg/ml), and the mixture was incubated at 37°C for 30 minutes to determine the residual enzyme activity. […] Enzyme (0.6 u) in 150 µl of 50 mM Tris-HCl (pH 8.5) was incubated with p-nitrophenylsulfate in the same buffer (1 mg/ml, 50 µl) for 30 minutes at various temperatures. […] Enzyme preparations (0.6 u) in 50 mM Tris-HCl (150 µl, pH 8.5) were incubated for 15 minutes at various temperatures and then cooled in an ice bath. p-Nitrophenylsulfate in the same buffer (1 mg/ml, 50 µl) was added to the enzyme solution, and the mixture was incubated for 30 minutes at 37°C. […] Fifty µl of enzyme solution (0.6 u in 50 mM Tris-HCl, pH 8.5), 80 µl of 50 mM Tris-HCl (pH 8.5), 50 µl of p-nitrophenyl sulfate (1 mg/ml in same buffer), and 20 µl of ion (10 mM) were mixed. […] After 18 hours, 100 µl of methanol was added, and 100 µl of sample was analyzed on a silica gel TLC plate using a solvent system consisting of chloroform-methanol (10:1 v/v). […]

Data set [5] concerns Es-1 sulfatase. Nature of the data set: Effect of salts on sulfatase activity. Type of data set: biochemical, Streptomyces griseorubiginosus S980-14. Conditions: 5 mM of a salt, 30 minutes at 37°C, pH 8.5. As for the experimental part:
as §1

On to `COc1cc([C@@H]2c3cc4c(cc3[C@@H](O[C@@H]3O[C@@H]5CO[C@@H](C)O[C@H]5[C@H](O)[C@H]3O)[C@H]3COC(=O)[C@H]23)OCO4)cc(OC)c1OS(=O)(=O)O` [(III), etoposide 4'-sulfate], for which the cytotoxicity entry in data set [1] is recorded as “much less cytotoxic than etoposide itself”. Further, the “substrate for the enzyme” value with Es-1 sulfatase [2] was “are substrates”. Regarding `COc1cc(C2c3cc4c(cc3C(OC3OC5COC(C)OC5C(OC(C)=O)C3OC(C)=O)C3COC(=O)C23)OCO4)cc(OC)c1OS(=O)(=O)O` (centres unmarked) [(IV), 2'',3''-di-O-acetyl-etoposide-4'-sulfate], the “substrate for the enzyme” value with Es-1 sulfatase [2] was “are substrates”.

Turning to `COc1cc(C2c3cc4c(cc3C(OC3OC5COC(C)OC5C(O)C3OS(=O)(=O)O)C3COC(=O)C23)OCO4)cc(OC)c1O` (centres unmarked) [(V), etoposide 2''-sulfate], in the data set on Es-1 sulfatase [2], the “substrate for the enzyme” value was “are not”. On the same count and under the same terms, under `COc1cc(C2c3cc4c(cc3C(OC3OC5COC(C)OC5C(OS(=O)(=O)O)C3O)C3COC(=O)C23)OCO4)cc(OC)c1O` (centres unmarked) [(VI), etoposide 3''-sulfate] stands “are not”. In the case of `CCCCC/C=C/C=C\C=C/C(O)C(C)C(C/C=C/C1OC(=O)C=CC1O)OS(=O)(=O)O` (centres unmarked) [BU-3285T], the “conversion to its desulfated derivative” value in the data set on Es-1 sulfatase [3] was “approximately 70%”.

In turn, `[Ca+2]` [Ca⁺⁺] yielded a sulfatase activity restored in the data set on Es-1 sulfatase [4] (addition of 1 mM of Ca⁺⁺ to the EDTA treated enzyme) of 95%. Further, the sulfatase activity level entry in the data set on Es-1 sulfatase [4] (calcium ion concentrations over 1 mM added to EDTA treated enzyme) is listed as “close to the original level”.

Turning to `O=C(O)CN(CCN(CC(=O)O)CC(=O)O)CC(=O)O` [EDTA], the sulfatase activity result in the data set with Es-1 sulfatase [4] (enzyme treated with 10 mM of EDTA followed by dialysis against water at 4°C) is given as “disappeared”. Take `O=P(O)(O)O` [phosphate ion]: the “sulfatase activity (effect of salts)” value in the data set on Es-1 sulfatase [5] was “strongly inhibited”.

Consider `[Cl-].[Na+]` [sodium chloride], for which the “sulfatase activity (effect of salts)” value in the data set on Es-1 sulfatase [5] is “strongly inhibited”.
